Experimental data published in patent publication US12344600B2, “c-Myc mRNA translation modulators and uses thereof in the treatment of cancer” (Anima Biotech Inc., priority 2022, dated 2025).

test system: c-Myc; assay: c-Myc immunofluorescence assay; format: cell-based, human; conditions: A549 cells, 24 hours, anti-c-Myc immunofluorescence
Protocol: A549 human non-small cell lung carcinoma cells were treated for 24 hours with increasing compound concentration, cells were fixed and stained with a nuclei stain (DAPI) and anti-c-Myc fluorescent antibody. The c-Myc signal was quantified by image analysis, and data was exported and analyzed using TIBCO Spotfire® (TIBCO Corporation). Dose response curves were generated and fitted with logaristic regression to calculate potency (EC50 values). Potency values are presented in Table 2 for all compounds and are shown for selected compounds (FIG. 3).
A549 cells were grown in 384-wells plates (Perkin Elmer, Cat. 6057300) for 48 hours, treated with compounds and then fixed for 20 min in 4% paraformaldehyde. After that permeabilization was done using 0.1% Triton X-100 in PBS for 20 min. Primary anti-c-Myc antibody (Abcam, ab32072) staining was performed for 90 min at room temperature. Cells then were washed twice with PBS and incubated with secondary antibody (Abcam, ab150075) for 90 min at room temperature. Nuclei were stained with DAPI for 10 min and washed twice with PBS.
Cell images were taken with Operetta (Perkin Elmer, USA), a wide-field fluorescence microscope at 20× magnification. After acquisition, the images were transferred to Columbus software (Perkin-Elmer) for image analysis. In Columbus, cells were identified by their nucleus, using the “Find Nuceli” module and cytoplasm was detected based on the secondary antibody channel. Subsequently, the fluorescent signal was enumerated in the identified cell region. Then data was exported to a data analysis and visualization software, Tibco Spotfire, USA.

Row | SMILES | Myc Efficacy (−LogEC50)
1 | COc1ccc(-c2noc(N3CCC(C(=O)NCC4CCN(Cc5ccc(C)cc5)C4)CC3)n2)cn1 (stereo not drawn) [Compound 159, 1-(3-(6-methoxypyridin-3-yl)-1,2,4-oxadiazol-5-yl)-N-((1-(4-methylbenzyl)pyrrolidin-3-yl)methyl)piperidine-4-carboxamide] | + (+ >3 and <5)
2 | COc1ccc(-c2csc(N3CCC(C(=O)NCC4CCN(Cc5ccc(C)cc5)C4)CC3)n2)cc1 (stereo not drawn) [Compound 160, 1-(4-(4-methoxyphenyl)thiazol-2-yl)-N-((1-(4-methylbenzyl)pyrrolidin-3-yl)methyl)piperidine-4-carboxamide] | ++ (++ ≥5 and <6)
3 | COc1ccc(-c2noc(N3CCC(C(=O)NCc4ccncc4)CC3)n2)cc1 [Compound 161, 1-(3-(4-methoxyphenyl)-1,2,4-oxadiazol-5-yl)-N-(pyridin-4-ylmethyl)piperidine-4-carboxamide] | + (+ >3 and <5)
4 | COc1ccc(-c2noc(N3CCC(C(=O)NCc4cncnc4)CC3)n2)cc1 [Compound 162, 1-(3-(4-methoxyphenyl)-1,2,4-oxadiazol-5-yl)-N-(pyrimidin-5-ylmethyl)piperidine-4-carboxamide] | + (+ >3 and <5)
5 | O=C(NCc1cccnc1)C1CCN(c2nc(-c3ccc(Cl)cc3)no2)CC1 [Compound 163, 1-(3-(4-chlorophenyl)-1,2,4-oxadiazol-5-yl)-N-(pyridin-3-ylmethyl)piperidine-4-carboxamide] | + (+ >3 and <5)
6 | O=C(C1CCN(c2nc(-c3ccccc3Cl)no2)CC1)N1CCOCC1 [Compound 164, (1-(3-(2-chlorophenyl)-1,2,4-oxadiazol-5-yl)piperidin-4-yl)(morpholino)methanone] | − (− ≤3)
7 | O=C(C1CCN(c2nc(-c3cccc(Cl)c3)no2)CC1)N1CCOCC1 [Compound 165, (1-(3-(3-chlorophenyl)-1,2,4-oxadiazol-5-yl)piperidin-4-yl)(morpholino)methanone] | + (+ >3 and <5)
8 | O=C(C1CCN(c2nc(-c3ccc(Cl)cc3)no2)CC1)N1CCOCC1 [Compound 166, (1-(3-(4-chlorophenyl)-1,2,4-oxadiazol-5-yl)piperidin-4-yl)(morpholino)methanone] | + (+ >3 and <5)
9 | Cc1ccc(CN2CC[C@@H](CNC(=O)C3CCN(c4nc(-c5ccc(Cl)cc5)no4)CC3)C2)cc1 [Compound 167, (S)-1-(3-(4-chlorophenyl)-1,2,4-oxadiazol-5-yl)-N-((1-(4-methylbenzyl)pyrrolidin-3-yl)methyl)piperidine-4-carboxamide] | +++ (+++ ≥6)
10 | Cc1ccc(CN2CC[C@H](CNC(=O)C3CCN(c4nc(-c5ccc(Cl)cc5)no4)CC3)C2)cc1 [Compound 168, (R)-1-(3-(4-chlorophenyl)-1,2,4-oxadiazol-5-yl)-N-((1-(4-methylbenzyl)pyrrolidin-3-yl)methyl)piperidine-4-carboxamide] | ++ (++ ≥5 and <6)
11 | COc1ccc(-c2n[nH]c(N3CCC(C(=O)NCC4CCN(Cc5ccc(C)cc5)C4)CC3)n2)cc1 (stereo not drawn) [Compound 169, 1-(3-(4-methoxyphenyl)-1H-1,2,4-triazol-5-yl)-N-((1-(4-methylbenzyl)pyrrolidin-3-yl)methyl)piperidine-4-carboxamide] | + (+ >3 and <5)
12 | Cc1ccc(CN2CCC(CNC(=O)C3CCN(c4nc(-c5ccc(O)cc5)no4)CC3)C2)cc1 (stereo not drawn) [Compound 170, 1-(3-(4-hydroxyphenyl)-1,2,4-oxadiazol-5-yl)-N-((1-(4-methylbenzyl)pyrrolidin-3-yl)methyl)piperidine-4-carboxamide] | + (+ >3 and <5)
13 | COc1ccc(-c2cccc(N3CCC(C(=O)NCC4CCN(Cc5ccc(C)cc5)C4)CC3)c2)cc1 (stereo not drawn) [Compound 171, 1-(4′-methoxy-[1,1′-biphenyl]-3-yl)-N-((1-(4-methylbenzyl)pyrrolidin-3-yl)methyl)piperidine-4-carboxamide] | ++ (++ ≥5 and <6)
14 | COc1ccc(-c2noc(C3CCC(C(=O)NCC4CCN(Cc5ccccc5)C4)CC3)n2)cc1 (stereo not drawn) [Compound 172, (1s,4s)-N-((1-benzylpyrrolidin-3-yl)methyl)-4-(3-(4-methoxyphenyl)-1,2,4-oxadiazol-5-yl)cyclohexane-1-carboxamide] | ++ (++ ≥5 and <6)
15 | COc1ccc(-c2noc([C@H]3CC[C@@H](C(=O)O)CC3)n2)cc1 [Compound 173, (1s,4s)-4-(3-(4-methoxyphenyl)-1,2,4-oxadiazol-5-yl)cyclohexane-1-carboxylic acid] | + (+ >3 and <5)
16 | COc1ccc(-c2noc(C3CCC(C(=O)NCC4CCN(Cc5ccccc5)C4)CC3)n2)cc1 (stereo not drawn) [Compound 174, (1r,4r)-N-((1-benzylpyrrolidin-3-yl)methyl)-4-(3-(4-methoxyphenyl)-1,2,4-oxadiazol-5-yl)cyclohexane-1-carboxamide] | ++ (++ ≥5 and <6)
17 | COc1ccc(-c2noc([C@H]3CC[C@H](C(=O)O)CC3)n2)cc1 [Compound 175, (1r,4r)-4-(3-(4-methoxyphenyl)-1,2,4-oxadiazol-5-yl)cyclohexane-1-carboxylic acid] | + (+ >3 and <5)
18 | COc1ccc(-c2noc(C3CCC(C(=O)NCC4CC(=O)N(Cc5ccccc5)C4)CC3)n2)cc1 (stereo not drawn) [Compound 176, (1s,4s)-N-((1-benzyl-5-oxopyrrolidin-3-yl)methyl)-4-(3-(4-methoxyphenyl)-1,2,4-oxadiazol-5-yl)cyclohexane-1-carboxamide] | + (+ >3 and <5)
19 | COc1ccc(-c2noc(C3CCC(C(=O)NCC4CC(=O)N(Cc5ccccc5)C4)CC3)n2)cc1 (stereo not drawn) [Compound 177, (1r,4r)-N-((1-benzyl-5-oxopyrrolidin-3-yl)methyl)-4-(3-(4-methoxyphenyl)-1,2,4-oxadiazol-5-yl)cyclohexane-1-carboxamide] | ++ (++ ≥5 and <6)
20 | O=C(NCc1cccnc1)C1CCN(c2nc(-c3ccc(O)cc3)no2)CC1 [Compound 178, 1-(3-(4-hydroxyphenyl)-1,2,4-oxadiazol-5-yl)-N-(pyridin-3-ylmethyl)piperidine-4-carboxamide] | + (+ >3 and <5)
21 | COc1ccccc1-c1noc(N2CCC(C(=O)NCc3cccnc3)CC2)n1 [Compound 179, 1-(3-(2-methoxyphenyl)-1,2,4-oxadiazol-5-yl)-N-(pyridin-3-ylmethyl)piperidine-4-carboxamide] | + (+ >3 and <5)
22 | COc1cccc(-c2noc(N3CCC(C(=O)NCc4cccnc4)CC3)n2)c1 [Compound 180, 1-(3-(3-methoxyphenyl)-1,2,4-oxadiazol-5-yl)-N-(pyridin-3-ylmethyl)piperidine-4-carboxamide] | + (+ >3 and <5)
23 | COc1ccc(-c2cc(N3CCC(C(=O)NCc4cccnc4)CC3)on2)cc1 [Compound 181, 1-(3-(4-methoxyphenyl)isoxazol-5-yl)-N-(pyridin-3-ylmethyl)piperidine-4-carboxamide] | + (+ >3 and <5)
24 | O=C(C1CCN(c2nc(-c3ccc(O)cc3)no2)CC1)N1CCOCC1 [Compound 182, (1-(3-(4-hydroxyphenyl)-1,2,4-oxadiazol-5-yl)piperidin-4-yl)(morpholino)methanone] | + (+ >3 and <5)
25 | COc1ccc(-c2cc(N3CCC(C(=O)N4CCOCC4)CC3)on2)cc1 [Compound 183, (1-(3-(4-methoxyphenyl)isoxazol-5-yl)piperidin-4-yl)(morpholino)methanone] | + (+ >3 and <5)
26 | CC(=O)Nc1ccc(-c2noc(N3CCC(C(=O)NCC4CCN(Cc5ccc(C)cc5)C4)CC3)n2)cc1 (stereo not drawn) [Compound 184, 1-(3-(4-acetamidophenyl)-1,2,4-oxadiazol-5-yl)-N-((1-(4-methylbenzyl)pyrrolidin-3-yl)methyl)piperidine-4-carboxamide] | + (+ >3 and <5)
27 | COc1ccc(-c2noc(N3CCC(C(=O)NCC4CCN(Cc5ccc(C)cc5)C4)CC3)n2)nc1 (stereo not drawn) [Compound 185, 1-(3-(5-methoxypyridin-2-yl)-1,2,4-oxadiazol-5-yl)-N-((1-(4-methylbenzyl)pyrrolidin-3-yl)methyl)piperidine-4-carboxamide] | ++ (++ ≥5 and <6)
28 | Cc1ccc(CN2CCC(CNC(=O)C3CCN(c4nc(-c5cccc(C)c5)no4)CC3)C2)cc1 (stereo not drawn) [Compound 186, N-((1-(4-methylbenzyl)pyrrolidin-3-yl)methyl)-1-(3-(m-tolyl)-1,2,4-oxadiazol-5-yl)piperidine-4-carboxamide] | ++ (++ ≥5 and <6)
29 | COc1cccc(-c2noc(N3CCC(C(=O)NCC4CCN(Cc5ccc(C)cc5)C4)CC3)n2)c1 (stereo not drawn) [Compound 187, 1-(3-(3-methoxyphenyl)-1,2,4-oxadiazol-5-yl)-N-((1-(4-methylbenzyl)pyrrolidin-3-yl)methyl)piperidine-4-carboxamide] | ++ (++ ≥5 and <6)
30 | Cc1ccc(CN2CCC(CNC(=O)C3CCN(c4nc(-c5ccccc5C)no4)CC3)C2)cc1 (stereo not drawn) [Compound 188, N-((1-(4-methylbenzyl)pyrrolidin-3-yl)methyl)-1-(3-(o-tolyl)-1,2,4-oxadiazol-5-yl)piperidine-4-carboxamide] | ++ (++ ≥5 and <6)
